Where a name gives a salt, the structure may show the parent alone.
Legend:
SH-SY5Y cells = test: In vitro [11C]MPC-6827 cell uptake assay with MT stabilizing/destabilizing agents and self-blocking
Description: Cell-binding assays in vitro were performed in SH-SY5Y cells with [^11C]MPC-6827 following our published protocols [20, 21]. […] They (0.5 × 10^6 cells/well) were treated with 1.0 µM of (a) stabilizing agents that increase MT polymerizations (paclitaxel, EpoD) [1, 25] or destabilizing agents increasing free tubulin content (vinblastine, mertasine) [26, 27] and 3 h later, [^11C]MPC-6827 (0.074 MBq/well) was added and incubated for 30 min at RT (n = 6/group). […] All the cells were washed with PBS and lysed with 1 N NaOH. Finally, the lysate from each well was γ-counted (PerkinElmer, Waltham, MA, USA) and counts-per-minute (cpm) values were normalized to the amount of radioactivity added to each well. Protein concentration was estimated in a subgroup of cells (n = 3) using the established Pierce BCA Protein Assay Kit from ThermoFisher [28, 29]. Cpm values were then matched to protein concentration per well, and the data expressed as %ID/mg of protein in each well.

[1] = test system: stabilized/bound and destabilized/free tubulins of SH-SY5Y cells; test: Cytoskeleton kit-based tubulin assay with [11C]MPC-6827 (free vs bound tubulin fractions); assay type: cell-based, human; details: for decrease of [11C]MPC-6827 radioactivity in bound tubulin fractions / decrease of [11C]MPC-6827 radioactivity in free tubulin fractions / increase of [11C]MPC-6827 radioactivity in bound fractions / increase of [11C]MPC-6827 radioactivity in free tubulin fractions: 1.0 µM agent 3 h, vs untreated fractions
Description: To further investigate the tubulin selectivity of [^11C]MPC-6827 in SH-SY5Y cells, tubulin assay was performed using the commercially available kit-based assay (Cytoskeleton Inc, USA). Briefly, SH-SY5Y cells (7 × 10^6 cells/well) were pretreated with 1.0 µM of same MT stabilizing (EpoD, paclitaxel) and destabilizing agents (mertasine, vinblastine) for 3 h (n = 3/group). […] Samples were loaded on to ultra-centrifuge following the kit-based assay parameters to separate stabilized/bound and destabilized/free tubulins. Stabilized tubulins from low-speed centrifugation (1000×g for 5 min at 37 °C) and destabilized tubulins from high speed centrifugation (100,000×g for 20 min at 37 °C) were collected separately and their associated radioactivity was measured using a γ counter (Perkin Elmer).

[2] = [11C]MPC-6827 brain microPET/CT at baseline and after EpoD treatment; assay type: in vivo; details: female Balb/C mice, EpoD 3.0 mg/kg intraperitoneal, 3 days acute treatment
Description: To validate the in vitro MT-stabilization cell uptake results, normal Balb/C mice (n = 6, 6 mo old) were treated with epothilone D (EpoD), a brain-penetrant, MT-stabilizing drug commonly used in tauopathies. [^11C]MPC-6827 brain PET/CT imaging was performed at baseline and after 3 days of acute treatment of EpoD treatment (3.0 mg/kg intraperitoneal injection). Whole-brain SUVmax was calculated and compared between the baseline and post-drug treatment scans.

β-tubulin = test system: β-tubulin; parameters: method as in PMID 17575155; details: high-affinity, selective β-tubulin binding MT agent; cited from earlier work
[3] = In vitro autoradiography of [11C]MPC-6827 on brain sections; assay type: binding, mice
Description: Autoradiography studies in vitro were performed on postmortem frozen brain sections from tau KO and control mice (n = 6/group) following published protocols. Briefly, the sagittal sections were mount on a glass slides (Super frost plus slides, Fisher Scientific, Waltham, MA), air-dried for 30 min and incubated in PBS (pH 7.4) for 10 min to remove any endogenous binding. Additionally, a sub-section of tau KO brains (n = 4) were self-blocked with non-radioactive MPC-6827 (10 µM) 1 h prior to radiotracer treatment. The slides were air-dried and ~ 0.5 MBq of [^11C]MPC-6827 in PBS was added to each slide and incubated for 30 min. The slides were then washed with PBS (3×) and water (1×) at 4 °C and quickly air-dried. Slides containing the brain tissues were exposed to radioluminographic imaging cassette BAS IP SR 2025 (GE Healthcare) for 12 h at − 20 °C and scanned with a GE Amersham Typhoon scanner (25 µm pixel size). Autoradiographs were analyzed using ImageQuant TL 8.2 and ROI were manually drawn (see Additional file 1: 3), and specific binding in each ROI was calculated and expressed as photo-stimulated luminescence signals per square millimeter (PSL/mm^2).

[4] = parameters: method as in earlier work; details: mice, rats, and dogs; cited from earlier work
[5] = [11C]MPC-6827 microPET/CT brain imaging in tau KO and WT mice; assay type: in vivo
Description: Small animal microPET/CT imaging was performed in anesthetized tau-KO and WT mice (n = 8/group) at 6 months of age. All mice received a bolus injection of [^11C]MPC-6827 (18.1 ± 0.01 MBq) via the tail vein. For the microPET/CT scans, the head/brain area was centered in the field of view, and the list-mode data from the emission scans were reframed into a 0-60 min dynamic binning sequence. Time-activity curves (TACs) were obtained, and radioactive uptake was expressed as standardized uptake values (SUVs) using the PMOD analysis software. Regions of interest (ROIs) were drawn for the whole brain and commonly AD-affected regions including cortex, striatum, hippocampus, and cerebellum, using Π-pmod Atlas software.

[6] = Post-PET ex vivo biodistribution of [11C]MPC-6827 in tau KO and WT mice
Description: Post-PET radiotracer tissue biodistribution studies were performed with [^11C]MPC-6827 in the KO and WT mice (n = 4/group). After dynamic brain imaging from 0 to 60 min, mice were euthanized, and samples of brain, blood, heart, lung, liver, spleen, pancreas, kidney, and muscle were harvested, weighed, and γ-counted using a Wallac Gamma Counter (PerkinElmer) with a standard dilution of the injectate. […]

[7] = 1.0 µM agent for 3 h, then tracer 30 min at RT, vs untreated cells

Compound: C/C1=C/C[C@@H](/C(C)=C/c2csc(C)n2)OC(=O)C[C@H](O)C(C)(C)C(=O)[C@H](C)[C@@H](O)[C@@H](C)CCC1 [EpoD, Epothilone d]
- decrease of [11C]MPC-6827 radioactive uptake (SH-SY5Y cells; [7]): ~ 44 (± 2) %
- decrease of [11C]MPC-6827 radioactivity in bound tubulin fractions [1]: ~ 62 (± 6) %
- decrease of [11C]MPC-6827 radioactivity in free tubulin fractions [1]: ~ 44 (± 1) %
- lower [11C]MPC-6827 brain uptake (whole-brain SUVmax) with EpoD treatment compared to baseline [2]: ~ 23 (± 1) %

Compound: COc1ccc(N(C)c2nc(C)nc3ccccc23)cc1 [MPC-6827, MPC-6827 hydrochloride]
- lower [11C]MPC-6827 radioactive uptake in self-blocking assay (SH-SY5Y cells; non-radioactive MPC-6827 1.0 µM 60 min before tracer, 30 min incubation): ~ 70 (± 1) %
- IC50 (β-tubulin): 1.5 nM
- lower radiotracer uptake on blocking compared to untreated tau KO samples ([3]; non-radioactive MPC-6827 10 µM 1 h prior to radiotracer, whole brain, cortex, hippocampus, mid-brain regions of tau KO sections): 63–70%
- brain-to-plasma ratios [4]: 14–30 times

Compound: Cc1nc(N(C)c2ccc(O[11CH3])cc2)c2ccccc2n1 [[^11C]MPC-6827]
- whole-brain SUVmax ([5]; WT mice, 0-60 min microPET/CT, IV): 1.74
- time of peak brain radioactivity (TAC) ([5]; both genotypes (tau KO and WT)): around 4 min
- whole-brain SUVmax ([5]; tau KO mice, 0-60 min microPET/CT, IV): 2.33
- whole-brain SUVmax in tau KO higher than in WT controls ([5]; tau KO vs WT mice, 0-60 min microPET/CT, IV): 33 (± 2) %
- increased radioactivity in destabilized/free tubulin fractions compared to bound fractions ([1]; tracer 30 min at RT): > 90 (± 4) %
- brain uptake ([6]; WT controls, brain): 1.03 ± 0.29 %ID/g
- higher brain uptake in tau KO mice compared to WT controls ([6]; brain): ~ 41%
- uptake in cortical regions ([6]; controls (WT), cortical regions): 0.69 ± 0.07 %ID/g
- uptake in cortical regions of tau KO brains higher than in controls ([6]; cortical regions): 37%
- brain uptake ([6]; tau KO mice, brain): 1.76 ± 0.31 %ID/g
- uptake in cortical regions ([6]; tau KO mice, cortical regions): 1.11 ± 0.03 %ID/g
- higher radioactivity in tau KO brains compared to age-matched controls, cortex ([3]; autoradiography in vitro, cortex): ~ 38[± 2] %
- higher radioactivity in tau KO brains compared to age-matched controls, hippocampus ([3]; autoradiography in vitro, hippocampus): ~ 33[± 3] %
- higher radioactivity in tau KO brains compared to age-matched controls, midbrain regions ([3]; autoradiography in vitro, midbrain regions): 30[± 3] %
- higher radioactivity in tau KO brains compared to age-matched controls, whole brain ([3]; autoradiography in vitro, whole brain): ~ 46[± 4] %

Compound: COc1cc2cc(c1Cl)N(C)C(=O)C[C@H](OC(=O)[C@H](C)N(C)C(=O)CCS)[C@]1(C)O[C@H]1[C@H](C)[C@@H]1C[C@@](O)(NC(=O)O1)[C@H](OC)/C=C/C=C(\C)C2 [mertasine]
- increase of [11C]MPC-6827 radioactive uptake (SH-SY5Y cells; [7]): 63 (± 2) %
- increase of [11C]MPC-6827 radioactivity in bound fractions [1]: ~ 66 (± 2) %
- increase of [11C]MPC-6827 radioactivity in free tubulin fractions [1]: ~ 39 (± 3) %

Compound: CC(=O)O[C@H]1C(=O)[C@@]2(C)[C@H]([C@H](OC(=O)c3ccccc3)[C@]3(O)C[C@H](OC(=O)[C@H](O)[C@@H](NC(=O)c4ccccc4)c4ccccc4)C(C)=C1C3(C)C)[C@]1(OC(C)=O)CO[C@@H]1C[C@@H]2O [paclitaxel]
- decrease of [11C]MPC-6827 radioactivity in bound tubulin fractions [1]: ~ 60 (± 2) %
- decrease of [11C]MPC-6827 radioactivity in free tubulin fractions [1]: ~ 36.8 (± 3) %

Compound: CC[C@]1(O)C[C@@H]2CN(CCc3c([nH]c4ccccc34)[C@@](C(=O)OC)(c3cc4c(cc3OC)N(C)[C@H]3[C@@](O)(C(=O)OC)[C@H](OC(C)=O)[C@]5(CC)C=CCN6CC[C@]43[C@@H]65)C2)C1 [vinblastine]
- increase of [11C]MPC-6827 radioactive uptake (SH-SY5Y cells; [7]): ~ 78 (± 2) %
- increase of [11C]MPC-6827 radioactivity in bound fractions [1]: 84 (± 4) %
- increase of [11C]MPC-6827 radioactivity in free tubulin fractions [1]: ~ 43 (± 1) %

— paper PMC9325934, “Preliminary mechanistic insights of a brain-penetrant microtubule imaging PET ligand in a tau-knockout mouse model” (EJNMMI Research, 2022)
